Results on one molecule are retold here after BindingDB's records for patent US11440904 (2022).

pIC50: −log10 of the molar value. A value given as a limit tells only on which side of the number the result lay.

This experiment has as its target Tyrosine-protein kinase BTK (Homo sapiens, UniProt Q06187).

Chain of Tyrosine-protein kinase BTK (Q06187 whole entry): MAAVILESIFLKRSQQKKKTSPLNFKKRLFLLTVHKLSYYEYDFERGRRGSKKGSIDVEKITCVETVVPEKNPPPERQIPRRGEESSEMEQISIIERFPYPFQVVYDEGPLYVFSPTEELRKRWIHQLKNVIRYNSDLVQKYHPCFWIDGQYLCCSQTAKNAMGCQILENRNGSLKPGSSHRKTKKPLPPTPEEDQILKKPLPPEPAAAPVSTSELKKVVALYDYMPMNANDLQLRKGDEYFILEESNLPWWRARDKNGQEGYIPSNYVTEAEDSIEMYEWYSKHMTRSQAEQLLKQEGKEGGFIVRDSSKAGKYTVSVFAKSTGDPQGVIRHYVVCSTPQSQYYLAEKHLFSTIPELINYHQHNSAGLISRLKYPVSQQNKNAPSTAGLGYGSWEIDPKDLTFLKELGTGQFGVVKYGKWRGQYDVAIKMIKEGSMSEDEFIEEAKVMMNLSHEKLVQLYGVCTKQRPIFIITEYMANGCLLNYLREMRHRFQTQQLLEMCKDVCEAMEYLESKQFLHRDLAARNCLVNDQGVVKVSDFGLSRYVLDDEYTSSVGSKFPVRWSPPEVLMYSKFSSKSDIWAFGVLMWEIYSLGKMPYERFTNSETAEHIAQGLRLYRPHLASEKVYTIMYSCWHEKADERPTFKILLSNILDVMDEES
Method: Then, Kinase assays were performed using the HotSpot assay platform.Briefly, specific kinase/substrate pairs along with required cofactors were prepared in reaction buffer; 20 mM Hepes pH 7.5, 10 mM MgCl2, 1 mM EGTA, 0.02% Brij35, 0.02 mg/ml BSA, 0.1 mM Na3VO4, 2 mM DTT, 1% DMSO. Compounds were delivered into the reaction, followed about 20 minutes later by addition of a mixture of ATP (Sigma, St. Louis Mo.) and 33P ATP (Perkin Elmer, Waltham Mass.) to a final concentration of 10 μM.Reactions were carried out at room temperature for 120 min, followed by spotting of the reactions onto P81 ion exchange filter paper (Whatman Inc., Piscataway, N.J.). Unbound phosphate was removed by extensive washing of filters in 0.75% phosphoric acid. […] IC50 values and curve fits were obtained using Prism (GraphPad Software).

As to `C=CC(=O)Nc1ccccc1Nc1nc(Nc2ccc(OCCCOC3(CC)OCC(C)(C)CO3)cc2)ncc1F` [US11440904, Compound 9], the negative-log IC50 (pIC50) was < 7.00.

Usually pIC50 stands for the IC50 on a negative log10 scale, so that one unit is a factor of ten.
